Laboratory results taken from patent publication US8987235B2, “N-cyclopropyl-(20R)-2-methylene-19,26,27-trinor-25-aza-vitamin D analogs and their uses” (Wisconsin Alumni Research Foundation, priority 2011, dated 2015).
“Also recorded” adds a separate entry of the source.

What was measured:
[1] = tested on: Human promyelocytic leukemia (HL60) cells; assay: HL-60 differentiation (nitro blue tetrazolium reduction); format: cell-based; details: four days, FIG. 2
Description: The study drugs were dissolved in ethanol and the concentrations determined using UV spectrophotometry. Serial dilutions were prepared so that a range of drug concentrations could be tested without changing the final concentration of ethanol (≦0.2%) present in the cell cultures.
Human promyelocytic leukemia (HL60) cells were grown in RPMI-1640 medium containing 10% fetal bovine serum. The cells were incubated at 37° C. in the presence of 5% CO2.
HL60 cells were plated at 1.2×10^5 cells/ml. Eighteen hours after plating, cells in duplicate were treated with drug. Four days later, the cells were harvested and a nitro blue tetrazolium reduction assay was performed (Collins et al., 1979; J. Exp. Med. 149:969-974). The percentage of differentiated cells was determined by counting a total of 200 cells and recording the number that contained intracellular black-blue formazan deposits. Verification of differentiation to monocytic cells was determined by measuring phagocytic activity (data not shown).

[2] = tested on: 24-hydroxylase (24 Ohase) gene promoter in ROS 17/2.8 (bone) cells; assay: In vitro transcription assay (24-hydroxylase promoter luciferase reporter); format: cell-based; details: for EC50: ROS 17/2.8 cells, 24-hydroxylase promoter luciferase, 16 h, FIG. 3, read-out: EC50, transcriptional activity in bone cells
Description: In Vitro Transcription Assay Transcription activity was measured in ROS 17/2.8 (bone) cells that were stably transfected with a 24-hydroxylase (24 Ohase) gene promoter upstream of a luciferase reporter gene (Arbour et al., 1998). Cells were given a range of doses. Sixteen hours after dosing the cells were harvested and luciferase activities were measured using a luminometer. RLU=relative luciferase units.

[3] = tested on: vitamin D-deficient rats; assay: Bone calcium mobilization (serum calcium); format: in vivo, Sprague-Dawley rats
From the text: Intestinal Calcium Transport and Bone Calcium Mobilization
Male, weanling Sprague-Dawley rats were placed on Diet 11 (Suda et al, J. Nutr. 100:1049, 1970) (0.47% Ca)+vitamins AEK for one week followed by Diet 11 (0.02% Ca)+vitamins AEK for 3 weeks. The rats were then switched to the same diet containing 0.47% Ca for one week followed by two weeks on the same diet containing 0.02% Ca. Dose administration began during the last week on 0.02% calcium diet. Four consecutive ip doses were given approximately 24 hours apart. Twenty-four hours after the last dose, blood was collected from the severed neck and the concentration of serum calcium determined by atomic absorption spectrometry as a measure of bone calcium mobilization. The first 10 cm of the intestine was also collected for intestinal calcium transport analysis using the everted gut sac method.

[4] = tested on: vitamin D-deficient rats; assay: Intestinal calcium transport (everted gut sac method); format: in vivo, Sprague-Dawley rats; details: low calcium diet, 4 ip doses, relative to 1,25(OH)2D3, FIG. 5
From the text: Dose administration began during the last week on 0.02% calcium diet. […] The first 10 cm of the intestine was also collected for intestinal calcium transport analysis using the everted gut sac method.

[5] = biological target: T1, full-length recombinant rat vitamin D receptor (Rattus norvegicus, UniProt P13053); assay: biochemical
T1 sequence (P13053 1-423): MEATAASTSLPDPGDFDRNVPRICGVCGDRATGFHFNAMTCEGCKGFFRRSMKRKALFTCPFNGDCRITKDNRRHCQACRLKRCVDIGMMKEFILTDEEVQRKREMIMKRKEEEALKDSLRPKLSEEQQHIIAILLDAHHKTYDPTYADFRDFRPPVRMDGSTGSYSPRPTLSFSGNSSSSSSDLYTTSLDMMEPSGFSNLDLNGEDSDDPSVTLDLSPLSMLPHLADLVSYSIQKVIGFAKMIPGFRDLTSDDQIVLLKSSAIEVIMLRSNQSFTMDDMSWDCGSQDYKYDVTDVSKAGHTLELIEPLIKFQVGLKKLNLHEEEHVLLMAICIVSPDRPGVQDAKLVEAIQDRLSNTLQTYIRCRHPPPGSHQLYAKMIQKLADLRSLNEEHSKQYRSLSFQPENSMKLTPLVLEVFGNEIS

Row | Compound | EC50 ([1]; Homo sapiens, HL-60, 96 h) [nM] | EC50 [2] [nM] | times less potent than 1,25(OH)2D3 in increasing transcription of the 24-hydroxylase gene ([2]; bone cells, relative to 1,25(OH)2D3) | times less potent than 1,25(OH)2D3 in releasing bone calcium stores ([3]; rats, low calcium diet, 4 ip doses, relative to 1,25(OH)2D3, FIG. 4) | times less potent than 1,25(OH)2D3 in promoting intestinal calcium transport [4] | Ki [5] [nM] | EC50 [1] [nM] | serum calcium levels (in words) ([3]; 87 pmol and 780 pmol dosages, rats on 0.02% Ca diet, listed as 1,25(OH)2D3)
1 | C=C1[C@H](O)CC(=C/C=C2\CCC[C@]3(C)[C@@H]([C@H](C)CCCNC4CC4)CC[C@@H]23)C[C@H]1O [CPA-1, N-cyclopropyl-(20R)-2-methylene-19,26,27-trinor-25-aza-1α-hydroxyvitamin D3] | 3 | 3 | about 10 times | about 400 times | about 20 times | 3 |  | 
2 | C=C1/C(=C\C=C2/CCC[C@]3(C)[C@@H]([C@H](C)CCCC(C)(C)O)CC[C@@H]23)C[C@@H](O)C[C@@H]1O [1α,25-dihydroxyvitamin D3, reference compound] |  | 0.2 |  |  |  |  | 2 | increased serum calcium levels; also recorded: significant increases in serum calcium
